Measured values as given in PubChem BioAssay (NCI).
Converted amounts (≈) assume the structure as drawn.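 Cells were grown in 96-well plates and exposed to each compound for 48 hours at five concentrations; endpoints were interpolated linearly between bracketing concentrations, or set to the highest concentration if not reached. Here, GI50 denotes the concentration required for 50% inhibition of growth. TGI is the concentration that stops growth completely.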 The source made the active and inactive calls. Cut-off read from the data, not from the text of the source: active = GI50 below about 0.43 µM; inactive = the rest.

Tests used:
Assay in all cases: inhibition of tumour cell growth, NCI panel, 48 h
BT-549 breast = tested on: BT-549 breast
HCT-15 colon = tested on: HCT-15 colon
HS 578T breast = tested on: HS 578T breast
K-562 leukemia = tested on: K-562 leukemia
RXF 393 renal = tested on: RXF 393 renal
SR leukemia = tested on: SR leukemia
DLD-1 colon = tested on: DLD-1 colon
KM20L2 colon = tested on: KM20L2 colon
M19-MEL melanoma = tested on: M19-MEL melanoma
DMS 273 small cell lung = tested on: DMS 273 small cell lung

| SMILES | TGI (BT-549 breast) | TGI (HCT-15 colon) | TGI (HS 578T breast) | TGI (K-562 leukemia) | TGI (RXF 393 renal) | TGI (SR leukemia) | other results |
| --- | --- | --- | --- | --- | --- | --- | --- |
| C=CCSC1=N/C(=C\c2ccc(C)cc2)C(=O)N1CC=C | 81.6 µM | > 100 µM | > 100 µM | 44.9 µM | 43.2 µM | 29.4 µM |  |
| CC(C)C(Sc1nc(N)nc2nc[nH]c12)C(=O)O (centres undefined) | > 100 µM | > 100 µM | > 100 µM | > 100 µM | > 100 µM | > 100 µM |  |
| O=C(O)c1ccccc1Sc1ccc(C=C2NC(=S)N(c3ccccc3)C2=O)s1 | > 100 µM | > 100 µM | > 100 µM | > 100 µM | > 100 µM | > 100 µM |  |
| N#CC1=C(N)OC2=C(CCCc3ccc([N+](=O)[O-])cc32)C1c1ccc(Cl)cc1 (centres undefined) | 75.3 µM | > 100 µM | 88.8 µM | > 100 µM | 19.5 µM |  |  |
| c1ccc(-c2cc(-c3ccccc3)nc(-c3ccncc3)c2)cc1 | > 100 µM | > 100 µM | > 100 µM | > 100 µM | > 100 µM | > 100 µM |  |
| O=C1CC2(CCN(Cc3ccccc3)CC2)C(=O)N1N1CCCCC1 | > 100 µM | > 100 µM | > 100 µM | > 100 µM | > 100 µM |  |  |
| c1c2c(cc3c1OCO3)-c1ncc3cc4c(cc3c1C2)OCO4 | > 100 µM | 24.8 µM | > 94.8 µM | > 64.9 µM | 43.5 µM |  | GI50 (BT-549 breast): 0.211 µM; GI50 (HCT-15 colon): < 0.01 µM; GI50 (K-562 leukemia): 0.0101 µM; GI50 (RXF 393 renal): 0.797 µM; GI50 (SR leukemia): < 0.01 µM |
| Cc1n[nH]c(=O)c2c3c([nH]c12)-c1ccccc1C3 | > 100 µM | > 100 µM | > 100 µM | > 100 µM | > 100 µM | > 100 µM |  |
| CCCNC(=O)c1cc(OC)c(OC)cc1NC(=O)C12CC3CC(CC(C3)C1)C2 | 31.9 µM | 32.7 µM | 51.5 µM | > 100 µM | 19.3 µM |  |  |
| CCc1nnc2sc(-c3ccc(-c4ccccc4[N+](=O)[O-])o3)nn12 | > 100 µM | > 100 µM | > 100 µM | > 100 µM | > 100 µM | 72.6 µM |  |
| O=C1c2cccc3cc([N+](=O)[O-])cc(c23)C(=O)N1c1ccc(OCCN2CCCC2)cc1 |  | 44.5 µM | > 100 µM |  | 37 µM | 73.2 µM |  |
| CC(=O)N(C(=O)CC(=O)N1N=C(C)C(N=Nc2cccc([N+](=O)[O-])c2)C1=O)c1ccc(Cl)cc1 (centres undefined) | > 10 µM | > 10 µM | > 10 µM | > 10 µM |  | > 10 µM |  |
| O=[N+]([O-])C(/C=C(\Cl)[N+](=O)[O-])=C(N1CCOCC1)N1CCOCC1 |  | > 100 µM | > 100 µM | 37.6 µM | > 100 µM | > 100 µM |  |
| O=C(OC1C#CCSCC#C/C=C\1)c1ccc2c(c1)C(=O)c1ccccc1C2=O (centres undefined) | 54.1 µM | > 100 µM | > 100 µM | > 100 µM | 47.1 µM | > 100 µM |  |
| COc1ccc(C(CC(=O)c2cccs2)C(=O)c2ccc3c(c2)OCO3)cc1 (centres undefined) |  | > 100 µM | > 100 µM | > 100 µM |  |  |  |
| CC(NC(CC12CC3CC(CC(C3)C1)C2)C(N)=O)c1ccccc1 (centres undefined) |  | > 100 µM |  | 41.4 µM |  | 41.3 µM |  |
| O=c1[nH]nc(-c2cccc([N+](=O)[O-])c2)[nH]1 | > 100 µM | > 100 µM | > 100 µM | > 100 µM | > 100 µM | > 100 µM |  |
| CCC(C)C(NC(=O)c1cccc2c(=O)c3ccccc3[nH]c12)C(=O)O (centres undefined) |  | > 100 µM | > 100 µM | > 100 µM |  | > 100 µM |  |
| Cc1ccc(NC(c2ccccc2)P(=O)(c2ccccc2)c2ccccc2)cc1 (centres undefined) | > 100 µM | > 100 µM | > 100 µM | > 100 µM | > 100 µM | > 100 µM |  |
| O=C(NCC(O)COc1ccccc1)c1ccccc1O (centres undefined) | > 100 µM | > 100 µM |  | > 100 µM | > 100 µM | > 100 µM |  |
| Cc1ccc(-c2ccc3c(c2)Sc2ccccc2O3)n1C |  | > 100 µM | > 100 µM | > 100 µM | 11.4 µM | > 100 µM |  |
| Cc1c2ccncc2c(C)c2c1[nH]c1ccc(O)cc12 |  | 0.361 µg/mL |  | 0.675 µg/mL |  |  | GI50 (DLD-1 colon): 0.023 µg/mL (≈ 0.0875 µM); TGI (DLD-1 colon): 0.883 µg/mL; GI50 (HCT-15 colon): 0.0107 µg/mL; GI50 (K-562 leukemia): 0.0182 µg/mL; outcome (KM20L2 colon): inactive; GI50 (M19-MEL melanoma): 0.0231 µg/mL (≈ 0.0881 µM); TGI (M19-MEL melanoma): 0.388 µg/mL; GI50 (RXF 393 renal): 0.102 µg/mL |
| COC1=CC(=O)[C@@]2(C)C(C)[C@H](c3ccccc3)[C@H]2C1=O (some centres undefined) |  | > 100 µM |  | > 100 µM | > 100 µM | > 100 µM | TGI (DLD-1 colon): > 100 µM; TGI (DMS 273 small cell lung): > 100 µM; TGI (KM20L2 colon): > 100 µM; TGI (M19-MEL melanoma): > 100 µM |
| C=CCN(C(C)=O)c1cc(OCc2ccccc2)c2c(c1)c(C)cn2S(=O)(=O)c1ccccc1 | > 100 µM | > 100 µM | > 70.4 µM | > 54.8 µM | > 100 µM | 4.21 µM |  |
| O=C1c2ccccc2CC12Cc1ccc3c(c1C2=O)CCCC3 (centres undefined) | > 100 µM | > 100 µM | 48.3 µM | > 100 µM | 23.9 µM | 6.56 µM |  |
| O=C1OCOC2(CCCC2)C1c1ccccc1 (centres undefined) |  | > 100 µM | > 100 µM | > 100 µM | > 100 µM | > 100 µM |  |
| CC(C)=CC(=O)c1[nH]c2ccccc2c1CC(=O)NCCc1cnc[nH]1 | > 100 µM | > 100 µM | > 100 µM | > 100 µM | > 100 µM | > 100 µM |  |
| CC(=O)CC(O)(C(F)(F)Cl)C(F)(Cl)Cl (centres undefined) |  | > 10 µM | > 10 µM | > 10 µM | > 10 µM |  |  |
| C=CCCCCCCCCCOC1C=CC(O)C(CO)O1 (centres undefined) | > 100 µM | > 100 µM | > 100 µM | 53.3 µM | > 100 µM |  |  |
| CCOC(=O)/C(C(=O)c1ccc[nH]1)=C1/CCCN1C | > 100 µM | > 100 µM | > 100 µM | > 100 µM | > 100 µM | > 100 µM |  |
